Source: ChEMBL document CHEMBL1909046, “DrugMatrix in vitro pharmacology data”

Key:
Cytochrome P450 2A6 = molecular target: T1, Cytochrome P450 2A6 (Homo sapiens, UniProt P11509); conditions: bti-tn-5b1-4; note: in other assays of this panel Not Active means under 50% inhibition at 10 µM
T1 sequence (P11509 whole entry): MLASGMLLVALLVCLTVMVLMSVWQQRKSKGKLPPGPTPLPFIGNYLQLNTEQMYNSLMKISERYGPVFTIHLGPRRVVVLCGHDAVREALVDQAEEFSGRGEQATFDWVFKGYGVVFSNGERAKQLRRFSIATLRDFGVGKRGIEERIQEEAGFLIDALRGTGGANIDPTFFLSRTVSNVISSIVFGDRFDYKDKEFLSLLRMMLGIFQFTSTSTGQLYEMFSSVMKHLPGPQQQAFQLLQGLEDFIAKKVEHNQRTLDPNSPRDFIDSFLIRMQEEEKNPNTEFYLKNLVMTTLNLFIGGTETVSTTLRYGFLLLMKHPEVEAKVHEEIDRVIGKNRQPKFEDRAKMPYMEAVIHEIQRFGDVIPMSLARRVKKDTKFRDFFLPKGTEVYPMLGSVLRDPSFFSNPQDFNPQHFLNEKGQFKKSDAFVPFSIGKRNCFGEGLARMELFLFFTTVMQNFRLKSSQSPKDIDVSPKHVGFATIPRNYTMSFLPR

Thromboxane-A synthase = molecular target: T2, Thromboxane-A synthase (Homo sapiens, UniProt P24557); assay: biochemical; format: tissue-based, Platelet; conditions: platelet;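 note: enzyme inhibition assay with PGH2 supplied as substrate; in other assays of this panel Not Active means under 50% inhibition at 10 µM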
T2 sequence (P24557 whole entry): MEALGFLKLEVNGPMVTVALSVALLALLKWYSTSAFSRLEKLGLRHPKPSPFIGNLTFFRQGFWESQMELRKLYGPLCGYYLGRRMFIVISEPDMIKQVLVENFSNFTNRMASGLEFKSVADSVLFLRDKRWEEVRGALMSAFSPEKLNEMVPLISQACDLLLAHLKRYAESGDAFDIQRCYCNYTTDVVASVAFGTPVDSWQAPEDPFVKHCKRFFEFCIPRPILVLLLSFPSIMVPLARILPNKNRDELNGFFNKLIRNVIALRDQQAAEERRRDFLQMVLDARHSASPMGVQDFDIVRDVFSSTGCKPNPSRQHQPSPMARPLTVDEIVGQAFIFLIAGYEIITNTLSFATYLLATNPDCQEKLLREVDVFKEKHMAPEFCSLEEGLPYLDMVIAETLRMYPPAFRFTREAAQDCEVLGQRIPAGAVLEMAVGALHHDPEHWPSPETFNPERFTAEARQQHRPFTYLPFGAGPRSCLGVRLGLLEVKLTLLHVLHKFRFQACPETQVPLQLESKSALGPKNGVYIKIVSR

[1] = molecular target: Beta-3 adrenergic receptor (Homo sapiens, UniProt P13945); assay: DRUGMATRIX: Adrenergic beta3 radioligand binding (ligand: [125I] Cyanopindolol); format: cell membranes, HEK293, Membrane; conditions: Not Active = under 50% inhibition at 10 µM; for Ki: read-out: Ki
Beta-3 adrenergic receptor, sequence (P13945 whole entry): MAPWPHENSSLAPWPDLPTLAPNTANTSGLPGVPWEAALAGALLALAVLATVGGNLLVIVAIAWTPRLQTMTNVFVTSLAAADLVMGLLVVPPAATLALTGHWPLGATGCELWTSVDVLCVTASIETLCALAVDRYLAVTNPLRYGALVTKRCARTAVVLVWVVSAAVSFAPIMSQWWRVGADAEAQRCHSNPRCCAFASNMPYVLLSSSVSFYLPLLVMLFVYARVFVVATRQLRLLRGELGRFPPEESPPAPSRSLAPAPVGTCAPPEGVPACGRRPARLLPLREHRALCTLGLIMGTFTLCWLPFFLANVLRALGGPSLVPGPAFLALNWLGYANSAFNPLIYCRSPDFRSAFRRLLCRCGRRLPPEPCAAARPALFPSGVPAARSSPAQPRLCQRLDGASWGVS

[2] = DRUGMATRIX: Glutamate, Kainate radioligand binding (ligand: [3H] Kainic acid); format: cell membranes, Rattus norvegicus, Wistar, Brain, Membrane; conditions: Not Active = under 50% inhibition at 10 µM
Melanocortin receptor 4 = Melanocortin receptor 4 (Homo sapiens, UniProt P32245); format: cell membranes, Membrane; conditions: hek293; note: in other assays of this panel Not Active means under 50% inhibition at 10 µM
Melanocortin receptor 4, sequence (P32245 whole entry): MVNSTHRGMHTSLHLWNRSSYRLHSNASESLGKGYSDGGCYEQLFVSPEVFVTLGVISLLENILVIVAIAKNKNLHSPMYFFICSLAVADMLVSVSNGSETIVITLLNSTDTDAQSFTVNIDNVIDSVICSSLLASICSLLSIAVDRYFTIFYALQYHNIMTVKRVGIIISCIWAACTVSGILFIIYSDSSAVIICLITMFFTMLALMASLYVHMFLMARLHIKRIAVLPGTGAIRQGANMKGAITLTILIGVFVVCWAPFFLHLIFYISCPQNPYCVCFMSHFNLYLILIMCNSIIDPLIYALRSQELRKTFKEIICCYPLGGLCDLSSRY

[3] = DRUGMATRIX: Tumor Necrosis Factor (TNF), Non-Selective radioligand binding (ligand: [125I] TNF-alpha); format: cell membranes, Membrane; conditions: u-937; Not Active = under 50% inhibition at 10 µM

SMILES	IC50 (Cytochrome P450 2A6)	Ki (Cytochrome P450 2A6)	IC50 (Thromboxane-A synthase)	IC50 ([1]; hek293)	IC50 [2]	Ki [2]	IC50 (Melanocortin receptor 4)	IC50 [3]	Ki [3]	IC50 ([1]; read-out: IC50) [µM]	Ki [1] [µM]
COc1cc(N)nc2[nH]c(-c3ccc(F)cc3)c(-c3ccncc3)c12	Not Active	Not Active	Not Active	Not Active	Not Active	Not Active	Not Active	Not Active	Not Active		
CNS(=O)(=O)Cc1ccc2[nH]cc(CCN(C)C)c2c1	Not Active	Not Active	Not Active	Not Active	Not Active	Not Active	Not Active	Not Active	Not Active		
CCCc1nn(C)c2c(=O)[nH]c(-c3cc(S(=O)(=O)N4CCN(C)CC4)ccc3OCC)nc12	Not Active	Not Active	Not Active	Not Active	Not Active	Not Active	Not Active	Not Active	Not Active		
COc1ccc(/C=C/C(=O)Nc2ccccc2C(=O)O)cc1OC	Not Active	Not Active	Not Active	Not Active	Not Active	Not Active	Not Active	Not Active	Not Active		
CCOC(N)=O	Not Active	Not Active	Not Active	Not Active	Not Active	Not Active	Not Active	Not Active	Not Active		
CC(=O)Nc1nnc(S(N)(=O)=O)s1 [ACETAZOLAMIDE]	Not Active	Not Active	Not Active	Not Active			Not Active				
O=c1[nH]c2ccccc2n1CCCN1CCC(n2c(=O)[nH]c3cc(Cl)ccc32)CC1 [DOMPERIDONE]			Not Active	Not Active			Not Active				
CC1=C(CC(=O)O)c2cc(F)ccc2/C1=C\c1ccc(S(C)(=O)=O)cc1 [EXISULIND]	Not Active	Not Active	Not Active	Not Active	Not Active	Not Active	Not Active	Not Active	Not Active		
CC(C)OC(=O)C(C)(C)Oc1ccc(C(=O)c2ccc(Cl)cc2)cc1 [FENOFIBRATE]	Not Active	Not Active	Not Active				Not Active			124	93
OCCN1CCN(CCCN2c3ccccc3Sc3ccc(C(F)(F)F)cc32)CC1 [FLUPHENAZINE]	Not Active	Not Active	Not Active				Not Active			29.5	22.1
CN1C2CCCC1CC(NC(=O)c1nn(C)c3ccccc13)C2 (configuration not stated) [GRANISETRON]	Not Active	Not Active	Not Active	Not Active			Not Active				
Nc1nc2c(c(=O)[nH]1)N(C=O)C(CNc1ccc(C(=O)N[C@@H](CCC(=O)O)C(=O)O)cc1)CN2 (some centres not stated) [LEUCOVORIN]	Not Active	Not Active	Not Active	Not Active	Not Active	Not Active	Not Active	Not Active	Not Active		
C[C@@H](O)[C@H]1C(=O)N2C(C(=O)O)=C(S[C@@H]3CN[C@H](C(=O)N(C)C)C3)[C@H](C)[C@H]12 [MEROPENEM]	Not Active	Not Active	Not Active	Not Active	Not Active	Not Active	Not Active	Not Active	Not Active		
CC[C@@H](CO)NC(=O)[C@@H]1C=C2c3cccc4c3c(cn4C)C[C@H]2N(C)C1 [METHYSERGIDE]	Not Active	Not Active	Not Active	Not Active			Not Active				
